Measurements as given in paper PMC6853638, “TMC1 is an essential component of a leak channel that modulates tonotopy and excitability of auditory hair cells in mice” (eLife, 2019).
Changes are numbered by the printed parent chain. “And” between values parts separate entries of the source, which are not always exact repeats. Equal values may be shown once.

What was measured:
[1] = biological target: T1, cysteine-substituted TMC1 constructs (Mus musculus, UniProt Q8R4P5, G411C); test: Background current before and after MTSET treatment in Tmc1-knockout OHCs expressing cysteine-substituted TMC1; type: cell-based; settings: Tmc1-knockout OHCs expressing TMC1-G411C, individual cells
T1 construct: control full-length TMC1 (TMC1_WT); expressed in transfected cells; host or cells: Tmc1-knockout mouse OHCs, injectoporation
T1 sequence (Q8R4P5 1-757 G411C): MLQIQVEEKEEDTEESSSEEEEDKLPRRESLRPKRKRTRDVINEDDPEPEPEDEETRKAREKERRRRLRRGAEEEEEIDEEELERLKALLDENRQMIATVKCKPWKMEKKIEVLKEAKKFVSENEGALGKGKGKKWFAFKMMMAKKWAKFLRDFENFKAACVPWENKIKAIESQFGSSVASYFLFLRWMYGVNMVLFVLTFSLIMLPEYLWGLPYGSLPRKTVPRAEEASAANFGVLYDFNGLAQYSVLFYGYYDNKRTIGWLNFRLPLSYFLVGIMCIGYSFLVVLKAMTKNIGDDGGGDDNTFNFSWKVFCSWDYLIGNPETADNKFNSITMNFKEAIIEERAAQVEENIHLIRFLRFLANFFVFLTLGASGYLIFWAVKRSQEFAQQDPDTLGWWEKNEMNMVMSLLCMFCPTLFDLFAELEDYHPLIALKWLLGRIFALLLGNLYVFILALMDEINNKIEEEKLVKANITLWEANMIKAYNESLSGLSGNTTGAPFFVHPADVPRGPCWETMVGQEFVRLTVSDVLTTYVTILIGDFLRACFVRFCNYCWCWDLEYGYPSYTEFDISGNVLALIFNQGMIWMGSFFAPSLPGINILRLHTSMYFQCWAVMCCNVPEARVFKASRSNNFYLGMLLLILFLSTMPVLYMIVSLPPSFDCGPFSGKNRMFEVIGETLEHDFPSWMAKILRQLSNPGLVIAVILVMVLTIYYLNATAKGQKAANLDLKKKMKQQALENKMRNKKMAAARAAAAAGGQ
Experimental: (§1) Mouse Tmc1 and Tmc2 cDNAs were cloned into CMV-Script and pCDNA3.1- vectors, respectively. To obtain the Tmc1-deafness vector and amino-acid-substituted Tmc1 constructs, specific primers were designed and used for PCR (Supplementary File 1). […] In brief, the organ of Corti was isolated from P3 mice and cut into three pieces in Dulbecco’s modified Eagle’s medium/F12 with 1.5 μg/ml ampicillin. For electroporation, a glass pipette (2 μm tip diameter) was used to deliver cDNA plasmids (0.2 μg/μl in 1 × Hanks' balanced salt solution) to hair cells in the sensory epithelium. EGFP was used as an indicator for the selection of transfected hair cells. A series of three pulses at 60 V lasting 15 ms at 1 s intervals was applied to cochlear tissues by an electroporator (ECM Gemini X2, BTX, CA). The cochlear tissues were cultured for 1 day in vitro and then used for electrophysiological recording.
(§2) All experiments were performed at room temperature (20–25°C). Briefly, the basilar membrane with hair cells was acutely dissected from neonatal mice. […] The acutely isolated or cultured basilar membrane was used for electrophysiological recording within 1 h. […] Hair cells were recorded with a patch-clamp amplifier (EPC 10 USB and Patchmaster software, HEKA Elektronik, Lambrecht/Pfalz, Germany).
(§3) The sampling rate was 1 kHz for leak current recording, 50 kHz for the IV protocol and current-clamp recording, and 100 kHz for unitary channel recording. The voltage-clamp used a –70 mV holding potential, and the current-clamp was held at 0 pA. Only recordings with a current baseline <20 pA in NMDG solution were used for statistical analysis.

[2] = biological target: T2, cysteine-substituted TMC1 constructs (Mus musculus, UniProt Q8R4P5, T532C); test: as above; type: cell-based; settings: Tmc1-knockout OHCs expressing TMC1-T532C, individual cells
T2 construct: control full-length TMC1 (TMC1_WT); expressed in transfected cells; host or cells: Tmc1-knockout mouse OHCs, injectoporation
T2 sequence (Q8R4P5 1-757 T532C): T1 sequence (Q8R4P5 1-757 G411C) with C411G, T532C
Experimental: as §1, §2, §3

C[N+](C)(C)CCSS(C)(=O)=O.[Br-] [MTSET, 2-(trimethylammonium)ethyl methanethiosulfonate, bromide]
amplitude of the background current after MTSET treatment [1]: -17.5539 and -22.5978 and -20.1413 and -23.0553 and -21.6542
amplitude of the background current after MTSET treatment [2]: -61.9555 and -32.5794 and -12.1284 and -34.0535 and -31.604
